Experimental data from patent US20220257793A1, “COMPOSITIONS AND USE OF ENGINEERED MYOGENIC CELLS” (Institute of Zoology, Chinese Academy of Sciences, priority 2019, published 2022).

What was measured:
[1] = test system: TS progenitors; assay: Cell counts after drug treatment, TS; type: cell-based, human
Protocol: (§1) HSKM, TS and LTS cells were seeded in gelatin-coated six-well plates at a density of 4×10^4 cells/well and maintained with culture medium. One day after seeding, culture medium was replaced with culture medium containing either paraquat (Sigma-Aldrich; 2 μM), hydrogen peroxide (ICM Pharma; 100 μM), DTT (Thermo Fisher; 250 μM), 2-deoxyglucose (Sigma-Aldrich; 2.5 mM), KC7F2 (Sigma-Aldrich; 10 μM) or DMSO/H2O controls. For ROS modulators, cells were allowed to grow for 72 hours post-treatment, while for 2-DG, cells were allowed to grow for eight days post-treatment.

[2] = test system: LTS progenitors; assay: Cell counts after drug treatment, LTS; type: cell-based, human
Protocol: as §1

[3] = test system: HSKM progenitors; assay: Cell counts after drug treatment, HSKM; type: cell-based, human
Protocol: as §1

[4] = test system: mitochondrial ROS in HSKM, TS and LTS cells; assay: Flow cytometry oxidation state assay with mito-Grx1-roGFP2; type: cell-based, human; details: all progenitor types (HSKM, TS, LTS); H2O2 100 μM, DTT 250 μM
Protocol: HSKM, TS and LTS cells were transduced with the roGFP2 retrovirus for 48 hours. Cells were allowed to expand to 15-cm tissue culture plates and then harvested for fluorescence-activated cell sorting for roGFP2+ cells using the FITC channel with a BD FACS Aria II cell sorter. HSKM, TS and LTS cells were seeded in gelatin-coated six-well plates at a density of 4×10^4 cells/well and maintained with culture medium. […] Cells were allowed to grow for 48 hours and then harvested for flow cytometry using a BD LSR Fortessa x-20 analyzer. HSKM, TS and LTS cells were used as non-fluorescent gating controls for each of their respective roGFP2+ counterparts. For each cell line, FSC, SSC, 405 nm/AmCyan and 488 nm/FITC channels were captured. FCS files were exported from FACS Diva and imported into FlowJo, where raw-value CSV files were exported. Raw values of 405 nm/488 nm ratio was calculated and then averaged for each cell line and condition.

[5] = test system: LTS progenitors; assay: qRT-PCR after ROS-modulating drugs in LTS progenitors; type: cell-based, human
Protocol: as §1, with “RNA was extracted by TRIzol (Thermo Fisher) and reverse transcribed with Superscript III (Thermo Fisher) according to manufacturer's instructions. The resulting cDNA was diluted 5× before performing qPCR with KAPA SYBR FAST on ABI Prism 7900HT (Applied Biosystems) according to manufacturers' instructions. HSKM,” for “HSKM,”

[6] = test system: LTS progenitors; assay: let-7 microRNA mimic transfection; type: cell-based, human
Protocol: HSKM, TS and LTS cells were seeded in gelatin-coated six-well plates at a density of 4×10^4 cells/well and maintained with culture medium. PEI (14.5 ng/μL), mature Mirvana hsa-let-7a-5p (#4464066; Assay ID: MC10050; Thermo Fisher) and/or hsa-let-7b-5p (#4464066; Assay ID: MC11050; Thermo Fisher) mimic (0.25 μM) or Cy5-conjugated scramble RNAi control, was mixed with serum-free DMEM to a total volume of 200 μL. This mixture was transfected onto each well.

[7] = test system: diabetic nude mice; assay: Transplantation of iMusc-Insm cells into streptozotocin diabetic nude mice; type: in vivo, mouse; details: after streptozotocin treatment, before transplantation
Protocol: To determine whether differentiated iMusc-Insm cells were able to produce bioactive insulin and treat diabetes mellitus in vivo, 5×10^6 iMusc-Insm and iMusc-neo myoblast cells were transplanted by direct skeletal muscle injection into 6-8 week old male athymic nude mice (B6.Cg-Foxn1^nn/J; Jackson Labs) that have received daily intraperitoneal injections of 40 mg/kg streptozotocin (Tocris Bioscience), dissolved in 0.1M citrate buffer (pH 4.5), for 5 consecutive days, to model diabetes mellitus. Glycemia and insulinemia were measured in fed mice every 3-7 days, for 3 weeks after injection of the cells. Blood glucose was measured using a glucometer (Roche), while plasma insulin was measured by ELISA (Mercodia).

Row | Compound | progenitor proliferation (cell counts) [1] | progenitor proliferation (cell counts) [2] | progenitor proliferation (cell counts) [3] | other results
1 | O=S(=O)(NCCSSCCNS(=O)(=O)c1cc(Cl)ccc1Cl)c1cc(Cl)ccc1Cl [KC7F2] | no significant effects | significantly suppressed LTS progenitor proliferation | no significant effects | –
2 | O[C@H](CS)[C@H](O)CS (racemic) [DTT, dithiothreitol] | no significant effects | significant suppression of LTS progenitor proliferation in a dose-dependent fashion | no significant effects | effect on mtROS [4]: most reliably reduced mtROS; HIF1A targets and glycolysis genes mRNA [5]: could suppress; OxPhos mRNA levels [5]: failed to perturb
3 | hsa-let-7a-5p | – | – | – | effect on proliferation rate (cell counts) [6]: neither let-7a, nor let-7b, nor both, had any effect
4 | O=CC[C@@H](O)[C@H](O)[C@H](O)CO [2-deoxyglucose] | mild but significant decreases | mild but significant decreases | mild but significant decreases | –
5 | hsa-let-7b-5p | – | – | – | effect on proliferation rate (cell counts) [6]: neither let-7a, nor let-7b, nor both, had any effect
6 | CN(N=O)C(=O)N[C@H]1C(O)O[C@H](CO)[C@@H](O)[C@@H]1O (mixture of isomers) [streptozotocin] | – | – | – | fed glucose levels [7]: ~346 mg/dL; fed insulin levels [7]: ~63 μIU/ml
7 | OO [H2O2, hydrogen peroxide] | no significant effects | significant suppression of LTS progenitor proliferation in a dose-dependent fashion | no significant effects | effect on mtROS [4]: most reliably increased mtROS; HIF1A targets and glycolysis genes mRNA [5]: could suppress; OxPhos mRNA levels [5]: failed to perturb
